Assay results: ChEMBL document CHEMBL3217424, “Total synthesis and anti-cholinesterase activity of marine-derived bis-indole alkaloid fascaplysin” (Medchemcomm, 2012)
The source made the active and inactive calls. No cut-off for these calls is given here.

Assays:
[1] = target: Acetylcholinesterase (Electrophorus electricus) (UniProt O42275); assay: Inhibition of Electrophorus electricus AChE using acetylthiocholine iodide as substrate at 10 uM after 30 mins by Ellman's method
[2] = target: T1, Acetylcholinesterase (Electrophorus electricus, UniProt O42275); assay: Inhibition of Electrophorus electricus AChE using acetylthiocholine iodide as substrate after 30 mins by Ellman's method
T1 sequence (O42275 whole entry): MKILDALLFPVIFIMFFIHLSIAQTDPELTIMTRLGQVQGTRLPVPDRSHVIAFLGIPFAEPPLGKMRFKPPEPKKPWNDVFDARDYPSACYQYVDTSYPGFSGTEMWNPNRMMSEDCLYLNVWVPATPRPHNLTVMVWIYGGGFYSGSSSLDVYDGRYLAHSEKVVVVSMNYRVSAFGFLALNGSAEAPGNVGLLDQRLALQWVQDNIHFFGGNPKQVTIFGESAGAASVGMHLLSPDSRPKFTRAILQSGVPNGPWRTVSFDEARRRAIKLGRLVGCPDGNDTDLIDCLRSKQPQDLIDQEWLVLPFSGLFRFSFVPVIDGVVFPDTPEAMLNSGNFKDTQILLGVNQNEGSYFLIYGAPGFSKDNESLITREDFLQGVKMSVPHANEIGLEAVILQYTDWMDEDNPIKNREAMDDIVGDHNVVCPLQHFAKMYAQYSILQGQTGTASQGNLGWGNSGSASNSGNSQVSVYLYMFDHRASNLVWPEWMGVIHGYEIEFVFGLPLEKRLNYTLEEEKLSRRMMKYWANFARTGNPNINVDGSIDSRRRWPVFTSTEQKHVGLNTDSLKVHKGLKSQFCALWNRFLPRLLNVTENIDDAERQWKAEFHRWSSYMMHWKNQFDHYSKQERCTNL

[3] = target: T1, Acetylcholinesterase; assay: Non-competitive inhibition of Electrophorus electricus AChE using acetylthiocholine iodide as substrate by Lineweaver-Burk reciprocal plot analysis
[4] = target: T2, Cholinesterase (Equus caballus, UniProt P81908); assay: Inhibition of equine serum BuChE using S-butyrylthiocholine iodide as substrate after 30 mins by Ellman's method
T2 sequence (P81908 whole entry): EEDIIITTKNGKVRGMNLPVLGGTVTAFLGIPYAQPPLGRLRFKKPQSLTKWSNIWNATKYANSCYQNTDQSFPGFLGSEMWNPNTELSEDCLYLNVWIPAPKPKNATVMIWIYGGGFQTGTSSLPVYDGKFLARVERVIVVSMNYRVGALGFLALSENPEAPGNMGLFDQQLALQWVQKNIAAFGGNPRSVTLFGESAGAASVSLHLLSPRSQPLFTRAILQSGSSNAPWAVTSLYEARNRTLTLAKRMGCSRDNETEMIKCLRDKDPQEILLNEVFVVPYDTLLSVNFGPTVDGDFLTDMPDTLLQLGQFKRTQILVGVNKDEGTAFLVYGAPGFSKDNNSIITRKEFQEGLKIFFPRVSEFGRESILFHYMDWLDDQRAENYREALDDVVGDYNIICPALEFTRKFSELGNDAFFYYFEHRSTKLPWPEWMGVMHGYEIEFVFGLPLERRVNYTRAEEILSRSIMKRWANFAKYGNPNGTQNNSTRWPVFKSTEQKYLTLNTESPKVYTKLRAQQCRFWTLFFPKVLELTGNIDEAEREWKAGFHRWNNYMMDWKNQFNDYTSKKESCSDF

[5] = target: CDK6/cyclin D2 (Homo sapiens, UniProt P30279+Q00534); assay: Inhibition of CDK6/cyclin-D2 (unknown origin); format: protein-complex assay
Sequence of CDK6/cyclin D2 (Q00534 whole entry): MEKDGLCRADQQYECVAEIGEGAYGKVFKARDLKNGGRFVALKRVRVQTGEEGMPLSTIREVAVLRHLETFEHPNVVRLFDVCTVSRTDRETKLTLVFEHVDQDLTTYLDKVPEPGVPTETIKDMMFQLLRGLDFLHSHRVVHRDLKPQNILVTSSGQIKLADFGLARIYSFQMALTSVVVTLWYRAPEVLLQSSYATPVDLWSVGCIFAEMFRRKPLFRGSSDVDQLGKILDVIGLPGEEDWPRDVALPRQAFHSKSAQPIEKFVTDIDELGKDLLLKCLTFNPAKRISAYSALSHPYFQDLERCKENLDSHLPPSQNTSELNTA
Sequence of CDK6/cyclin D2 (P30279 whole entry): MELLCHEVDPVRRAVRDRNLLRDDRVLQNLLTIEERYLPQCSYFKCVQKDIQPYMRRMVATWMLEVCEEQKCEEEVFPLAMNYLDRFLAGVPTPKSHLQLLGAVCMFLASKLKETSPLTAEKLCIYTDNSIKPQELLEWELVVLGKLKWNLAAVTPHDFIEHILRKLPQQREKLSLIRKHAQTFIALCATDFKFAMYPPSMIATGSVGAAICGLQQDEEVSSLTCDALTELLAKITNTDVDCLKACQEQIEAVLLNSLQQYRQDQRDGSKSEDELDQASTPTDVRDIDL

[6] = target: Cyclin-dependent kinase 1/cyclin B1 (Homo sapiens, UniProt P06493); assay: Inhibition of CDK1/cyclin-B (unknown origin); format: protein-complex assay
Sequence of Cyclin-dependent kinase 1/cyclin B1 (P06493 whole entry): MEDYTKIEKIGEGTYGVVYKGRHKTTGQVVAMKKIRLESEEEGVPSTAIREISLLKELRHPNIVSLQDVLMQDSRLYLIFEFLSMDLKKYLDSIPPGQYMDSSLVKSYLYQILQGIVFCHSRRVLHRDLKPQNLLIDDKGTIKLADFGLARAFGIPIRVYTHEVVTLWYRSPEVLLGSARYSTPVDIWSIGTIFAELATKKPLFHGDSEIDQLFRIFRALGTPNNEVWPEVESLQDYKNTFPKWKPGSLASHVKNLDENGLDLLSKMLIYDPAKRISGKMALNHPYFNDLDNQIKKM
Sequence of Cyclin-dependent kinase 1/cyclin B1 (P14635 whole entry, further chain): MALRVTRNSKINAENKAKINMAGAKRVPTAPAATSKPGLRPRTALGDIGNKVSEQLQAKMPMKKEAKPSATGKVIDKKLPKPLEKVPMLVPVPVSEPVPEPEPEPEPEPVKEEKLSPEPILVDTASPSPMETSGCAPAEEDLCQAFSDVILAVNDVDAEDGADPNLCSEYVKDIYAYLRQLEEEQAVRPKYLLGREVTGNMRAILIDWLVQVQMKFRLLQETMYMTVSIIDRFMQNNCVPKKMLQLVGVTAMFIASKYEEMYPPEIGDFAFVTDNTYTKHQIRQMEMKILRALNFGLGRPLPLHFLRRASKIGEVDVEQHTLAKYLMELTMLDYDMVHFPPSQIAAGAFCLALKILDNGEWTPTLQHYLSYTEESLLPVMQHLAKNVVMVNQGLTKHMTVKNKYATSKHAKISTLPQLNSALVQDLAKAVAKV

[7] = target: T2, Cholinesterase; assay: Non-competitive inhibition of equine serum BuChE using S-butyrylthiocholine iodide as substrate by Lineweaver-Burk reciprocal plot analysis
[8] = target: Cyclin-dependent kinase 2/cyclin E1 (Homo sapiens, UniProt P24941); assay: Inhibition of CDK2/cyclin-E (unknown origin); format: protein-complex assay
[9] = target: Cyclin-dependent kinase 5/CDK5 activator 1 (Homo sapiens, UniProt Q00535); assay: Inhibition of CDK5/p-35 (unknown origin); format: protein-complex assay
Sequence of Cyclin-dependent kinase 5/CDK5 activator 1 (Q00535 whole entry): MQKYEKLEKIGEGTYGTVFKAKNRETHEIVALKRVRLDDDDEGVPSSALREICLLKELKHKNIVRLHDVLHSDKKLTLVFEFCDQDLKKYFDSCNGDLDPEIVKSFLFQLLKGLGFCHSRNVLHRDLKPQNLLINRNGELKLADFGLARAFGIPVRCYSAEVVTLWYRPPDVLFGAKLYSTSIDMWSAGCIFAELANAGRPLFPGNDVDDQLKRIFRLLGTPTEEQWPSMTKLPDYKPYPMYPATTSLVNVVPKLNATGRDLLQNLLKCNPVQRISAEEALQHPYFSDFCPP
Sequence of Cyclin-dependent kinase 5/CDK5 activator 1 (Q15078 whole entry, further chain): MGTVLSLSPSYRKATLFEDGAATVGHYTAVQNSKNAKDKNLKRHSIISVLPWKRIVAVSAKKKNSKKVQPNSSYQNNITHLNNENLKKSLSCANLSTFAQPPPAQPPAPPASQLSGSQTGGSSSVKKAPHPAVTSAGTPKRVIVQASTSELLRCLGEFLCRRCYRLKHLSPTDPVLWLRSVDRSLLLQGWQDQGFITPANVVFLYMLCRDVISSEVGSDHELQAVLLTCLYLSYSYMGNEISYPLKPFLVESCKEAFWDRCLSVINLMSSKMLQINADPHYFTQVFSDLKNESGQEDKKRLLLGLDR

[10] = target: Cyclin-dependent kinase 4/cyclin D2 (Homo sapiens, UniProt P11802+P30279); assay: Inhibition of CDK4/cyclin-D2 (unknown origin); format: protein-complex assay
Sequence of Cyclin-dependent kinase 4/cyclin D2 (P11802 whole entry): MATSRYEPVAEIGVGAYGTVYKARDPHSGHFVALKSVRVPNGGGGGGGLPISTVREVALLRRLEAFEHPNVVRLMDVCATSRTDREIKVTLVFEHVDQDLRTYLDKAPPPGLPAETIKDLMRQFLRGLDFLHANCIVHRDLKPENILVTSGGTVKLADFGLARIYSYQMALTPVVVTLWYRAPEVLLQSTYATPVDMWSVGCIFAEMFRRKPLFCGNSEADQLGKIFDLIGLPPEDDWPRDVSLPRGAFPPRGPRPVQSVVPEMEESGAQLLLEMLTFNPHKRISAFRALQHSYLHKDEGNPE
Sequence of Cyclin-dependent kinase 4/cyclin D2 (P30279 whole entry): as the sequence (P30279 whole entry) above

[11] = target: CDK4/Cyclin D3 (Homo sapiens, UniProt P11802); assay: Inhibition of CDK4/cyclin-D3 (unknown origin); format: protein-complex assay
[12] = target: Acetylcholinesterase (Homo sapiens) (UniProt P22303); assay: Ratio of physostigmine IC50 to compound IC50 for acetylcholinesterase (unknown origin)
Sequence of Acetylcholinesterase (Homo sapiens) (P22303 whole entry): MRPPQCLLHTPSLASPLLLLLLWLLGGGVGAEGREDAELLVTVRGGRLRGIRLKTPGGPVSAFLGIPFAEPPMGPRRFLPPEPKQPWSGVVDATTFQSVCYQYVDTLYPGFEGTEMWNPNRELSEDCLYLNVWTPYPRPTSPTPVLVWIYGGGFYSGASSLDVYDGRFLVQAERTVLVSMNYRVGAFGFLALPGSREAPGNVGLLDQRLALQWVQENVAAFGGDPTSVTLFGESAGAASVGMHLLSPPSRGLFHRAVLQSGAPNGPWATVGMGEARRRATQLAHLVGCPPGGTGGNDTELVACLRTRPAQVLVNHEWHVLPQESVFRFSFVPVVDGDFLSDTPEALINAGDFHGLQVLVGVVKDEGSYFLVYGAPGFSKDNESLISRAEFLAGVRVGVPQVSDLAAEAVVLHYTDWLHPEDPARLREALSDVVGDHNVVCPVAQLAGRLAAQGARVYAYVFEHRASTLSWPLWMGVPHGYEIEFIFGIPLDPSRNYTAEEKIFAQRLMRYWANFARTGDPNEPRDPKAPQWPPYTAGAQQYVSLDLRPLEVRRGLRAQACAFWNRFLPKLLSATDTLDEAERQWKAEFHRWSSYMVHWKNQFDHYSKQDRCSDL

Sequence of Acetylcholinesterase (Electrophorus electricus) (O42275 24-633 limits assumed): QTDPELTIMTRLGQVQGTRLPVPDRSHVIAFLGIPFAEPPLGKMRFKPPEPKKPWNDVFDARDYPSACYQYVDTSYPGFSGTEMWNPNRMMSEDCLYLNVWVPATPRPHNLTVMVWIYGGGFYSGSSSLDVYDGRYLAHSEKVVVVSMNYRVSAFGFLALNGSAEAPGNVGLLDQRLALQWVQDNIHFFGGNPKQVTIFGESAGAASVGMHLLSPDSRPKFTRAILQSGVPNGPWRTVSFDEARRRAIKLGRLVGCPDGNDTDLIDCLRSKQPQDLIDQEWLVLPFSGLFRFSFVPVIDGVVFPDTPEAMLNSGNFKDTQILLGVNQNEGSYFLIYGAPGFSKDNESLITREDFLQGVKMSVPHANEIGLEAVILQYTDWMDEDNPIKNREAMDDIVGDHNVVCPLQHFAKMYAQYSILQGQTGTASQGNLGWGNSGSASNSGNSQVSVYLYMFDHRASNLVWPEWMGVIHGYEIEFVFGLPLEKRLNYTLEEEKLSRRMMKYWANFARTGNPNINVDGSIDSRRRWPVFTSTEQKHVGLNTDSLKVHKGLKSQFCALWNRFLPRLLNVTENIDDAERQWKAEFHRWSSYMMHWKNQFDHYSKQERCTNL

O=C(c1ccccc1Cl)c1nccc2c1[nH]c1ccccc12
inhibition [1]: inactive

O=C1c2ccccc2-[n+]2ccc3c([nH]c4ccccc43)c21 [FASCAPLYSIN]
IC50 [2]: 1.49 µM | Ki [3]: 2.28 µM | IC50 [4]: 90.5 µM | IC50 [5]: > 50 µM | IC50 [6]: > 100 µM | Ki [7]: 48.5 µM | IC50 [8]: > 50 µM | IC50 [9]: 20 µM | IC50 [10]: > 100 µM | IC50 [11]: > 100 µM | inhibition [1]: 86%

COC(=O)C1=CO[C@@H](C)[C@H]2C[n+]3ccc4c([nH]c5ccccc54)c3C[C@H]12
Ratio IC50 [12]: 10
